According to patent US7960374B2, “Tricyclic compounds, compositions, and methods useful in the treatment or prophylaxis of 5-HT6 receptor-related disorders” (Proximagen Limited, priority 2006, dated 2011):

Key:
human 5-HT6 receptor [1] = molecular target: T1, human 5-HT6 receptor (Homo sapiens, UniProt P50406); test: 5-HT6 receptor binding assay ([3H]-LSD, SPA); conditions: for Ki: [3H]-LSD as labeled ligand, membranes of HEK293 cells expressing human 5-HT6, read-out: Binding affinity (Ki) at the human 5-HT6 receptor
T1 construct: expressed in transfected cells; host or cells: HEK293
T1 sequence (P50406 whole entry): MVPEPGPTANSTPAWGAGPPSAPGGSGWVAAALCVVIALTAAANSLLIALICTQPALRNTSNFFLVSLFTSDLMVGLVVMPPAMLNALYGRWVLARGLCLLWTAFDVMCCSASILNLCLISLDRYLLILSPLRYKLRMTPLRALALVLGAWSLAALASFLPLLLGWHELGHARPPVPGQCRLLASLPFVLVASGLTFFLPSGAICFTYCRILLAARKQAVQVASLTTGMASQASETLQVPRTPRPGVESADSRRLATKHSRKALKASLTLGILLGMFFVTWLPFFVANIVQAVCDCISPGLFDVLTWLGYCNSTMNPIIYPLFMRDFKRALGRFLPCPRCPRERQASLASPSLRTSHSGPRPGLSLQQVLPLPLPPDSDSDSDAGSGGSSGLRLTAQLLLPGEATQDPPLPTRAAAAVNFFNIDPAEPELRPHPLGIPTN

human 5-HT6 receptor [2] = molecular target: T1, human 5-HT6 receptor; test: 5-HT6 intrinsic activity assay (inhibition of 5-HT induced increase in cAMP); format: cell-based; conditions: read-out: Antagonist potency at the human 5-HT6 receptor, fKi (= IC50,corr)
Description: (b) 5-HT6 Intrinsic Activity Assay
Briefly, HEK293/5-HT6 cells were seeded in polylysine coated 96-well plates at a density of 25,000/well and grown in DMEM (Dulbecco's Modified Eagle Medium) (without phenol-red) containing 5% dialyzed Foetal Bovine Serum for 48 h at 37° C. in a 5% CO2 incubator. The medium was then aspirated and replaced by 0.1 ml assay medium (Hanks Balance Salt Solution containing 20 mM HEPES, 1.5 mM isobutylmethylxanthine and 1 mg/ml bovine serum albumin). After addition of test substances, 50 μl dissolved in assay medium, the cells were incubated for 10 min at 37° C. in a 5% CO2 incubator. The medium was again aspirated and the cAMP content was determined using a radioactive cAMP kit (Amersham Pharmacia Biotech, BIOTRAK RPA559).

SMILES	Ki (human 5-HT6 receptor [1]) [nM]	IC50 (human 5-HT6 receptor [2]) [nM]	Hill coefficient (human 5-HT6 receptor [1]; three experiments)
CN1CCOc2ccc3c(ccn3S(=O)(=O)c3ccccc3)c2C1 [Example 5, 2-Methyl-8-(phenylsulfonyl)-1,3,4,8-tetrahydro-2H-[1,4]oxazepino[6,7-e]indole]	2	3	–
NCCc1c[nH]c2ccc(O)cc12 [Example 5-HT, 5-hydroxytryptamine, reference compound]	–	–	0.94 (SD 0.09)
CN1CCOc2ccc3c(ccn3S(=O)(=O)c3ccc4ncsc4c3)c2C1 [Example 10, 8-(1,3-Benzothiazol-6-ylsulfonyl)-2-methyl-1,3,4,8-tetrahydro-2H-[1,4]oxazepino[6,7-e]indole]	1	1	–
O=S(=O)(c1ccccc1)n1ccc2c3c(ccc21)OCCNC3 [Example 49, 8-(Phenylsulfonyl)-1,3,4,8-tetrahydro-2H-[1,4]oxazepino[6,7-e]indole]	2	5	–
